Data as given in patent US20040029860A1, “Anti-proliferative drugs” (priority 2000, published 2004).
Read-outs that look alike come from different tables or passages of the source. Each block holds one compound with its values, some of them ahead of it.

Legend:
[1] = test system: HaCat keratinocytes; test: keratinocyte viability, Neutral red, HaCat; format: cell-based, human; details: for cell viability HaCat (in words): 5-100 μM, 24 hr, Neutral red, FIG. 13A, 15A; for IC50: Homo sapiens, HaCaT
Experimental: (§1) The drugs were administered at concentrations within the range of 5-100 μM and cell viability was measured 24 hr post-administration by Neutral red staining. The efficiency of the agents against viability of the cell lines was evaluated also by comparison with two commonly used anticancer agents (Doxorubicin and 5-fluorouracil (5-FU)) at equimolar concentrations.

[2] = test system: HaCat I5 keratinocytes; test: keratinocyte viability, Neutral red, HaCat I5; format: cell-based, human; details: for cell viability HaCat I5 (in words): 5-100 μM, 24 hr, Neutral red, FIG. 13B, 15B; for IC50: Homo sapiens, HaCaT
Experimental: as §1

[3] = test system: different cell-lines; test: mean IC50 over cell lines and therapeutic index
[4] = test system: mouse melanoma (B-16); test: cell viability, melanoma B16; format: cell-based; details: Mus musculus
Experimental: (§2) Cyclic antidepressants at varying concentrations (between 10PM and 100 μM) was applied to neuroblastoma SH-SY5T, 3LL lung carcinoma, prostate (LN-CapAp), melanoma B16, and cell viability was determined as described above.

[5] = test system: human neuroblastoma (SH-SY5T); test: cell viability, neuroblastoma SH-SY5T; format: cell-based; details: Homo sapiens; Table 1A; read-out: Viability IC50 Neuroblastoma SH-SY5T
Experimental: The effect of paroxetine on primary tissue cultures was also evaluated. […] The viability of the cells after treatment with paroxetine was determined by neutral red (NR) technology 24 hr. post treatment.
as §2

[6] = test system: human neuroblastoma (SK-N-SH); test: cell viability (neutral red, Almar Blue, Hoechst dye), neuroblastoma SK-N-SH; format: cell-based; details: Homo sapiens, SK-N-SH; Table 1A
[7] = test system: rat glioblastoma (C6); test: cell viability, glioma C6; format: cell-based; details: Rattus norvegicus; Table 1A
[8] = test system: mouse Lewis lung carcinoma (3LL); test: in vivo effect on Lewis lung carcinoma (3LL) in mice; details: 3LL inoculated C57 mice, i.p. daily, thioridazine 15 mg/kg, others 30 mg/kg; for lungs weight / tumor size compared to control group: FIG. 5
Experimental: Female C57 black mice aged 4 weeks were used in order to evaluate the in vivo effect of cyclic psychotropic agents on tumor cells. In particular, animals were divided into 5 groups (6-8 mice each). Animals were inoculated with mouse Lewis lung carcinoma (3LL, 0.5 million each) by i.v. injection to the tail vein and then treated by i.p. injection daily for 3 weeks with the following different agents
(5) Paroxetine (30 mg/kg).
During the treatment period animals were inspected daily and their body weight registered twice a week. […] After the four weeks of treatment the mice were sacrificed and their lungs dissected and weighted.

[9] = test system: doxorubicin resistant neuroblastoma cells (SH-SY5T); test: sensitization to doxorubicin, doxorubicin resistant neuroblastoma SH-SY5T; format: cell-based, human; details: dose dependant, FIG. 6E, 6F
[10] = test system: B16 melanoma cells; test: sensitization to doxorubicin, B16 melanoma cells; format: cell-based, mouse; details: clomipramine 10, […], 20 μM with doxorubicin 1, 2.5, 5 μM; FIG. 6B
[11] = test system: MDR B16 melanoma; test: sensitization to doxorubicin, MDR B16 melanoma; format: cell-based, mouse; details: dose dependant, FIG. 6C
[12] = test system: mouse lung sarcoma (3LL); test: cell viability, lung 3LL; format: cell-based
Experimental: In another experiment the effect of clotiapine at the same concentrations on the viability of mouse lung carcinoma (3LL) cells was determined.
as §2

[13] = test system: mouse embryo whole brain culture; test: primary tissue culture, whole brain; format: cell-based; details: primary culture, data not shown, read-out: IC50 whole brain tissue
[14] = Table 1B, read-out: Cell viability IC50 Melanoma 16B

SMILES: O=c1[nH]cc(F)c(=O)[nH]1 [5-FU, 5-fluorouracil]
cell viability HaCat (in words) [1]: resistant
cell viability HaCat I5 (in words) [2]: resistant

IC50 [4, 14]: 64 µM
SMILES: CN(C)CCC=C1c2ccccc2CCc2ccccc21 [Amitriptiline]
IC50 ([3]; read-out: IC50 Mean +/− SD): 64 µM

IC50 [5]: 15 µM
IC50 [6]: 100 µM
IC50 ([4]; Table 1A, read-out: Viability IC50 Melanoma B16): 46 µM
IC50 [7]: 22 µM
SMILES: CN(C)CCCN1c2ccccc2Sc2ccc(Cl)cc21 [Chlorpromazine]
IC50 ([3]; read-out: IC50 Mean ± SD): 45.7 ± 33.3 µM

SMILES: CN(C)CCCN1c2ccccc2CCc2ccc(Cl)cc21 [Clomipramine]
survival rate during four weeks of treatment [8]: 7/7
lungs weight / tumor size compared to control group [8]: effective in reducing tumor size
potentiation of doxorubicin toxicity (in words) [9]: potentiate the toxicity of doxorubicin
cell viability in combination with doxorubicin [10]: less than 15 % from control
cell viability HaCat (in words) [1]: effective in reducing cell viability
cell viability HaCat I5 (in words) [2]: effective in reducing cell viability
cell viability in combination with doxorubicin (in words) [11]: significantly decreased

IC50 ([12]; Mus musculus, Table 1B, read-out: Cell viability IC50 Lungs Sarcoma 3LL): 40 µM
IC50 [4, 14]: 45 µM
SMILES: CN1CCN(C2=Nc3ccccc3Sc3ccc(Cl)cc32)CC1 [Clotiapine]
IC50 ([1]; mean of the determinations, read-out: IC50 HaCat ME): > 100 µM
IC50 ([1]; single determinations, read-out: IC50 HaCat): > 100 µM
IC50 ([2]; mean of the determinations, read-out: IC50 HaCat I5 ME): > 100 µM
IC50 ([2]; single determinations, read-out: IC50 HaCat I5): > 100 µM
cell viability, 3LL lung carcinoma (in words) ([12]; 10 μM-100 μM, FIG. 3B, 4B): effective in reducing viability

SMILES: CN1CCN(C2=Nc3cc(Cl)ccc3Nc3ccccc32)CC1 [Clozapine]
IC50 [13]: > 200 µM

SMILES: CNCCC(Oc1ccc(C(F)(F)F)cc1)c1ccccc1 (centres unmarked) [Fluoxetine]
survival rate during four weeks of treatment [8]: 5/7
lungs weight / tumor size compared to control group [8]: effective in reducing tumor size
potentiation of doxorubicin toxicity (in words) [9]: potentiate the toxicity of doxorubicin
cell viability HaCat (in words) [1]: effective in reducing cell viability
cell viability HaCat I5 (in words) [2]: effective in reducing cell viability
